Laboratory results taken from patent US6710090B2, “Inhibitory or blocking agents of molecular generating and/or inducing functions” (priority 1994, dated 2004).

Experiments:
spermatozoa = assay: Inhibitory effect on flagellum motility of spermatozoa; format: cell-based, japanese bull
Procedure: In order to investigate an effect of Yoshixol on a flagellum motility of spermatozoa, the spermatozoa (seed japanese bull ID: Sinmorihide<registration No.Zen-Wa-Kuro1114, lot No.84Y28>) which has been conserved in the liquid nitrogen was thawing at 35° C. After thawing, 1 ml of semen was transferred to Petori-schale (grainer lab. GmHB) and, flagellum motility was observed by a phase contrast microscopy (IMT-2, Olympus Co.) and was recorded by a video film via a collar video camera (CCD-IRIS, Sony Co.) so that wave cycles and speed of the flagellum were analyzed by an original software of dynamic state analyzer. […] However, though a flagellum movement was completely stopped, the rotation of the head which occurs at the centriole (near junction between head and tail) was found during a few 10 seconds. And, a speed of this rotation gradually was decelerated with progress of a time. […] Moreover, from the knowledge that these movements of cells are involved in microfilaments and microtubles which is constricted from the proteins assembly, a morphological change of this spermatozoa due to treatment with Yoshixol was investigated by transmission type (JEM1200, EXII, JEOL, Ltd.) and scanning type (JSM-6000F, JEOL, Ltd.) electron microscopy. The outside of normal flagellum with regular basic structure of 9+2 is enclosed with a cell membrane and, there was the axial filament which structure is related to a movement is observed inside. The axial filament has […] (centrum pair) that exist mainly on the center and nine double tubles that exist in a periphery (circumscription canaliculus). […] But, though morphological aspect as a whole of spermatozoa was not altered by the treatment with Yoshixol, many particles with a size of 10-30 nm on the surface were observed likely to be blowed out, when the surface structure of flagellum was investigated by a magnification. And also, ring formation likely to a doughnut in which region is contributed to the movement was not found and, adhesion of small particles were noticeable (referred FIG. 28). […]

pseudomonas aeruginosa = assay: Histological observation of pseudomonas aeruginosa after treatment; format: cell-based; conditions: after treatment with Yoshixol
[1] = system: synthesized dimers SEQ ID NO: 1 and SEQ ID NO: 2; assay: Molecular weight of new synthesized dimers with seven base pair, electrophoresis; format: biochemical; conditions: 2 μl dimer solution with 2 μl of Yoshixol, 20% gel electrophoresis
Procedure: DNA or RNA synthesis device (392-25 type, Perkin-Elmer Co.) was used and 7 base alignment (CTTCGGA) and (CTTCGGG) new synthesis dimer (SEQ ID NO: 1) (5′>CTTCGGACTTCGGA<3′) and (SEQ ID NO: 2) (5′>CTTCGGGCTTCGGG<3′) were synthesized. Then, an effect of Yoshixol on a change in molecular weight of the dimer was investigated. This pellet was dissolved on 50 μl of tris EDTA, and OD260 was measurement by 100 times attenuation so that concentration was turned into equality (5 ng/μl) by tris EDTA and distilled water. And, 4 μl of an adjusted synthesis dimer was labeled at 5′-terminal end of the dimer with 4 μl of ATP which was labeled by P32. In addition, after processing the dimer with 1 μl of polynucleokinase (TaKaRa, Tokyo) for 30 minutes by 37° C., the solution was heated at 70° C. for 5 minutes. Afterward, 65 μl of tris EDTA, 1 μl of glycogen and 190 μl of chilled ethanol were added and were mixed. And, it was centrifuged over 10 minute by 16,000 cpm. After taking the supernatant out, the pellet was made dry. Again, it was dissolved by 50 μl of tris EDTA and, 1 μl of the solution with radioactivity was mixed with urea (15 g), acrylamide (5.7 g), bisacrylamide (0.3 g), tris boric acid EDTA (3 ml), 10% ammoniumpersulfate (0.1 ml) and N, N, N, N-tetramethyldiamine (15 μl) to distilled water, so that the volume was made to 30 ml in total. […]

[2] = system: keratinocytes isolated from a human skin; assay: Anti-cancer effect, cultured keratinocytes, microscopy; format: cell-based; conditions: 4 μl of Yoshixol
Excerpt: Adhesive factors between cells play an important role on prolifelation of malignant tumor cells and metastasis. In order to investigate the adhesive factors between cells, intracellular structure of cultured keratinocytes are utilized to observe. Thus, by using keratinocytes isolated from a human skin and cultured in this invention, structure between cells and cellular aspect of keratinocytes (5 days passed after culturing of second generation) were investigated by phase microscope (Olympus Co., IMT-2), transmission type (JEOL, Ltd. JEM 1200, EXII) and scanning type (JEOL, Ltd. JSM-6000F) electron microscopes. In the non-treated group with Yoshixol, the cultured cells proliferated monologously and in order as like as a stone wall. There were normal aspects of intracellular organella and mitosis. There were not blank spaces between cell and filling with intracellular matrix (referred FIGS. 16a, 17a). […] In addition, extracellular matrix has been also dispersed in an irregularity from cells as various sizes of particles (referred FIGS. 16b, 17b). […] And also, Yoshixol has an inhibitory effect of cell prolifelation and metastasis such as tumor cells. […]

C=C1CC(C)(C)C=CC1=O [Yoshixol, 4,4-dimethyl-6-methylene-2-cyclohexen-1-one]
velocity of spermatozoa (spermatozoa; 1 μl of Yoshixol added to 1 ml semen, normal 0.3-1.5 mm per second): zero
flagellum movement (spermatozoa; after 1 μl of Yoshixol was added to 1 ml semen): immediately inhibited
morphological aspect as a whole of spermatozoa (spermatozoa; electron microscopy after treatment with Yoshixol): not altered
histological observation of the bacilli (pseudomonas aeruginosa): swelled as likely as a balloon and were ruptured
change in molecular weight of the synthesized dimers versus without treatment [1]: did not differ
aspects of cultured cells ([2]; 5 days after culturing of second generation): showed diverse irregularity
cell membrane and intracellular organella ([2]; electron microscopes): destroyed with varieties
